This is an account of results in ChEMBL document CHEMBL3045154, “Synthesis and Insecticidal Activity of 1, 3-Dithianes” (1991).

Common to all, as to type: functional
In experiment [1] the test system is Henosepilachna vigintioctopunctata. Description: Insecticidal activity against third-instar larvae of Henosepilachna vigintioctopunctata assessed as mortality at 100 ppm after 2 days. The conditions noted are these: 48 h.
Another experiment has as its system Tetranychus urticae. Description: Insecticidal activity against Tetranychus urticae (two-spotted spider mite) in kidney bean plant leaf assessed as mortality at 500 ppm after 2 days. The conditions noted are these: 48 h.
The subject of a further experiment is Chilo suppressalis. Description: Insecticidal activity against 5th instar larva of Chilo suppressalis assessed as mortality at 50 ug/g after 48 hr.

The structures appear in SMILES notation.

What is called mortality is the percentage killed. For the molecule `CN(C)C1CSC(C#N)SC1` (stereo unspecified), the mortality at 100 ppm in experiment [1] was determined as 30%. For the same molecule, in the experiment on Tetranychus urticae, the mortality at 500 ppm was found to be 80%. The mortality in the experiment with Chilo suppressalis was 100%.
For `CN(C)C1CSCSC1` the same measures were 10%, 20% and 30%.
The corresponding values for `CC(=O)C1(C(=O)c2ccccc2)SCC(N(C)C)CS1` (stereo unspecified) are 35%, 80% and 100%.
With `CN(C)C1CSC(C(=O)c2ccccc2)(C(=O)c2ccccc2)SC1`, the mortality at 100 ppm in experiment [1] turned out to be 100%. For the same molecule, the mortality at 500 ppm with Tetranychus urticae came to 80%. For the same molecule, the mortality in the experiment with Chilo suppressalis turned out to be 100%.
As for `N#CC1(c2ccc(Cl)cc2)SCC(OC(=O)Nc2ccc(Cl)cc2)CS1` (stereo unspecified), the mortality at 500 ppm in the experiment with Tetranychus urticae is 60%. The mortality with Chilo suppressalis was 0%.
With `CCOC(=O)C1(C(=O)c2ccccc2)SCC(N(C)C)CS1` (stereo unspecified), the mortality at 100 ppm in experiment [1] was 30%. The mortality at 500 ppm with Tetranychus urticae turned out to be 90%. Besides, the mortality in the experiment on Chilo suppressalis came out at 100%.
For `C/C(=N\Nc1ccc(Br)cc1)C1SCC(N(C)C)CS1` (stereo unspecified) the same measures were 45%, 80% and 100%.
`N#CC1(C(=O)O)SCCCS1`: the mortality at 500 ppm in the experiment with Tetranychus urticae amounted to 0%. For the same molecule, the mortality in the experiment on Chilo suppressalis is listed as 0%.
`CCOC(=O)C1(C(C)=O)SCC(N(C)C)CS1` (stereo unspecified): the mortality at 100 ppm in experiment [1] turned out to be 30%. Moreover, in the experiment with Tetranychus urticae, the mortality at 500 ppm came to 100%. In addition, the mortality in the experiment with Chilo suppressalis is on record as 100%.
On to `CNC1CSC(C#N)(c2ccc(Cl)cc2)SC1` (stereo unspecified), for which the mortality at 500 ppm with Tetranychus urticae was 30%. Moreover, the mortality with Chilo suppressalis is listed as 10%.
With `CCOP(=O)(OCC)C1(C#N)SCC(N(C)C)CS1` (stereo unspecified), the mortality at 100 ppm in experiment [1] turned out to be 5%. Further, the mortality at 500 ppm with Tetranychus urticae worked out at 100%. Further, the mortality in the experiment with Chilo suppressalis came to 100%.
On to `CN(C)C1CSC(C#N)(c2ccccc2)SC1` (stereo unspecified), for which the mortality at 100 ppm in experiment [1] is 30%. Also, the mortality at 500 ppm in the experiment on Tetranychus urticae worked out at 100%. For the same molecule, in the experiment on Chilo suppressalis, the mortality is given as 100%.
As to `CCN(CC)C(=S)SC1(C#N)SCC(N(C)C)CS1` (stereo unspecified), in experiment [1], the mortality at 100 ppm was 100%. The mortality at 500 ppm in the experiment with Tetranychus urticae is 90%. In addition, the mortality in the experiment on Chilo suppressalis is 100%.
Regarding `O=C(c1ccccc1)C1(C(=O)c2ccccc2)SCC(O)CS1`, in the experiment on Tetranychus urticae, the mortality at 500 ppm was 40%. Further, the mortality with Chilo suppressalis was 0%.
As to `CN(C)C1CSC(C(N)=O)(C(N)=O)SC1`, the mortality at 100 ppm in experiment [1] was determined as 100%. Also, in the experiment on Tetranychus urticae, the mortality at 500 ppm was 60%. In addition, the mortality in the experiment on Chilo suppressalis was 100%.
Regarding `CN(C)C1CSC(C#N)(C#N)SC1`, the mortality at 100 ppm in experiment [1] stood at 100%. Further, the mortality at 500 ppm in the experiment on Tetranychus urticae worked out at 90%. Besides, in the experiment with Chilo suppressalis, the mortality worked out at 100%.
For `CC1SCC(N(C)C)CS1` (stereo unspecified), in experiment [1], the mortality at 100 ppm was 10%. Also, the mortality at 500 ppm in the experiment on Tetranychus urticae amounted to 30%. Moreover, the mortality in the experiment with Chilo suppressalis is 10%.
Regarding `CC(=O)C1(C(C)=O)SCC(N(C)C)CS1`, the mortality at 100 ppm in experiment [1] amounted to 70%. The mortality at 500 ppm in the experiment with Tetranychus urticae came out at 40%. In addition, the mortality with Chilo suppressalis is on record as 100%.
On to `CC(C)C(C(=O)OC1CSC(C#N)(c2ccc(Cl)cc2)SC1)c1ccc(Cl)cc1` (stereo unspecified), for which the mortality at 500 ppm in the experiment on Tetranychus urticae was determined as 20%. Further, the mortality with Chilo suppressalis is reported as 0%.
On to `CN(C)C1CSC(C#N)(C(N)=O)SC1` (stereo unspecified), for which the mortality at 100 ppm in experiment [1] came out at 85%. The mortality at 500 ppm in the experiment on Tetranychus urticae was determined as 100%. Moreover, the mortality in the experiment on Chilo suppressalis was found to be 100%.
`CNC(=O)C1(C#N)SCC(N(C)C)CS1` (stereo unspecified): the mortality at 100 ppm in experiment [1] came to 85%. Further, the mortality at 500 ppm in the experiment with Tetranychus urticae was 100%. In addition, the mortality with Chilo suppressalis was determined as 100%.
Regarding `CCOC(=O)C1(C#N)SCC(N(C)C)CS1` (stereo unspecified), in experiment [1], the mortality at 100 ppm is 60%. Moreover, the mortality at 500 ppm in the experiment with Tetranychus urticae is 100%. Further, the mortality with Chilo suppressalis stood at 100%.
For the molecule `CN(C)C1CSC(C#N)(c2ccc(Cl)cc2)SC1` (stereo unspecified), the mortality at 500 ppm in the experiment on Tetranychus urticae came to 100%. Moreover, the mortality in the experiment on Chilo suppressalis is listed as 100%.
As for `N#CC1(c2ccc(Cl)cc2)SCC(N2CCOCC2)CS1` (stereo unspecified), the mortality at 500 ppm in the experiment with Tetranychus urticae is 90%. For the same molecule, in the experiment on Chilo suppressalis, the mortality worked out at 50%.
For `CCOP(=S)(OCC)OC1CSC(C#N)(c2ccc(Cl)cc2)SC1` (stereo unspecified) the same measures were 40% and 0%.
Consider `CCCCN(CCCC)C1CSC(C#N)(c2ccc(Cl)cc2)SC1` (stereo unspecified), for which the mortality at 500 ppm with Tetranychus urticae worked out at 100%. Also, the mortality with Chilo suppressalis was 50%.
Consider `CN(C)C1CSC(C(=O)c2ccccc2)SC1` (stereo unspecified), for which the mortality at 100 ppm in experiment [1] worked out at 80%. For the same molecule, the mortality at 500 ppm with Tetranychus urticae came to 50%. Moreover, in the experiment with Chilo suppressalis, the mortality is listed as 100%.
For `CCOC(=O)C1(C(=O)OCC)SCC(N(C)C)CS1` the same measures were 85%, 100% and 100%.
For the molecule `CN(C)C1CSSC1` [NEREISTOXIN], in the experiment with Tetranychus urticae, the mortality at 500 ppm was found to be 30%. Also, in the experiment on Chilo suppressalis, the mortality amounted to 100%.
Regarding `CCCC1(C#N)SCC(N(C)C)CS1` (stereo unspecified), the mortality at 100 ppm in experiment [1] worked out at 30%. The mortality at 500 ppm in the experiment on Tetranychus urticae was 70%. Also, in the experiment with Chilo suppressalis, the mortality was found to be 100%.
For the molecule `CCOC(=O)C1SCC(N(C)C)CS1` (stereo unspecified), the mortality at 100 ppm in experiment [1] worked out at 45%. Further, the mortality at 500 ppm in the experiment on Tetranychus urticae is 100%. In addition, in the experiment on Chilo suppressalis, the mortality is reported as 80%.
On to `CNC(=O)OC1CSC(C#N)(c2ccc(Cl)cc2)SC1` (stereo unspecified), for which the mortality at 500 ppm in the experiment on Tetranychus urticae came to 30%. For the same molecule, in the experiment with Chilo suppressalis, the mortality is reported as 0%.
For the molecule `N#CC1(c2ccc(Cl)cc2)SCC(N2CCCC2)CS1` (stereo unspecified), the mortality at 500 ppm with Tetranychus urticae came to 100%. Besides, the mortality in the experiment with Chilo suppressalis is reported as 50%.
With `CCN(CC)C1CSC(C#N)(c2ccc(Cl)cc2)SC1` (stereo unspecified), the mortality at 500 ppm with Tetranychus urticae was 100%. For the same molecule, the mortality in the experiment with Chilo suppressalis amounted to 100%.
In the case of `N#CC1(c2ccc(Cl)cc2)SCC(O)CS1` (stereo unspecified), in the experiment with Tetranychus urticae, the mortality at 500 ppm was 30%. Moreover, the mortality in the experiment on Chilo suppressalis is recorded as 0%.
The corresponding values for `N#CC1(c2ccc(Cl)cc2)SCCCS1` are 0% and 0%.
Regarding `CC(=O)C1SCC(N(C)C)CS1` (stereo unspecified), the mortality at 100 ppm in experiment [1] was determined as 65%. In addition, the mortality at 500 ppm with Tetranychus urticae turned out to be 100%. In the experiment with Chilo suppressalis, the mortality came out at 100%.
